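Each compound was tested at five concentrations against cells in 96-well plates for 48 hours. Abbreviation: GI50, concentration required for 50% inhibition of growth.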 Active and inactive are the calls of the source. Rule as the data show it: active = GI50 up to about 1.1 µM and inactive = higher.
Tests used:
Test in all cases: DTP human tumour cell line panel, 48 h
SF-295 = test system: SF-295
SK-MEL-5 = test system: SK-MEL-5
LOX IMVI = test system: LOX IMVI
PC-3 = test system: PC-3
IGROV-1 = test system: IGROV-1
EKVX = test system: EKVX
UACC-62 = test system: UACC-62
SNB-75 = test system: SNB-75
UACC-257 = test system: UACC-257
NCI/ADR-RES = test system: NCI/ADR-RES
RXF 393 = test system: RXF 393
OVCAR-8 = test system: OVCAR-8
SK-OV-3 = test system: SK-OV-3
OVCAR-4 = test system: OVCAR-4
HCC 2998 = test system: HCC 2998
A549 = test system: A549
HL-60 = test system: HL-60
OVCAR-5 = test system: OVCAR-5
CAKI-1 = test system: CAKI-1
CCRF-CEM = test system: CCRF-CEM
HT-29 = test system: HT-29
A498 = test system: A498
SR = test system: SR
SNB-19 = test system: SNB-19
MDA-MB-435 = test system: MDA-MB-435
HOP-92 = test system: HOP-92
Hs-578T = test system: Hs-578T
786-0 = test system: 786-0
UO-31 = test system: UO-31
MDA-N = test system: MDA-N
U-251 = test system: U-251
SK-MEL-28 = test system: SK-MEL-28
COLO 205 = test system: COLO 205
M14 = test system: M14
BT-549 = test system: BT-549
NCI-H23 = test system: NCI-H23
KM12 = test system: KM12
ACHN = test system: ACHN
SK-MEL-2 = test system: SK-MEL-2
SW-620 = test system: SW-620
HCT-116 = test system: HCT-116
SF-539 = test system: SF-539
K562 = test system: K562
MDA-MB-231 = test system: MDA-MB-231
TK-10 = test system: TK-10
HCT-15 = test system: HCT-15
OVCAR-3 = test system: OVCAR-3
MOLT-4 = test system: MOLT-4
HOP-62 = test system: HOP-62
SN12C = test system: SN12C
NCI-H226 = test system: NCI-H226
MCF7 = test system: MCF7
NCI-H460 = test system: NCI-H460
Malme-3M = test system: Malme-3M
DU-145 = test system: DU-145
NCI-H522 = test system: NCI-H522
RPMI-8226 = test system: RPMI-8226

With `O=C1Nc2c(Cl)cc(Cl)cc2/C1=N/N=C/c1ccccc1O` as the compound, how does the GI50 (SF-295) read?
The GI50 was 22.5 µM (inactive).

And the GI50 (SK-MEL-5)?
The GI50 was 20.4 µM (inactive).

And the GI50 (LOX IMVI)?
The GI50 was 16.3 µM (inactive).

And the GI50 (PC-3)?
The GI50 was 19.5 µM (inactive).

And the GI50 (IGROV-1)?
Its GI50 is 26.1 µM (inactive).

And the GI50 (EKVX)?
The GI50 was 11.5 µM (inactive).

And the GI50 (UACC-62)?
Its GI50 is 17.2 µM (inactive).

And the GI50 (SNB-75)?
The GI50 was 23.5 µM (inactive).

What about the GI50 (UACC-257) of the same compound?
Its GI50 is 23.5 µM (inactive).

And the GI50 (NCI/ADR-RES)?
The GI50 was 19.5 µM (inactive).

And the GI50 (RXF 393)?
The GI50 was 21.2 µM (inactive).

And the GI50 (OVCAR-8)?
Its GI50 is 21.4 µM (inactive).

What about the GI50 (SK-OV-3) of the same compound?
The GI50 was 30.6 µM (inactive).

What about the GI50 (OVCAR-4) of the same compound?
The GI50 was 27.6 µM (inactive).

What about the GI50 (HCC 2998) of the same compound?
Its GI50 is 17.9 µM (inactive).

What about the GI50 (A549) of the same compound?
The GI50 was 29.2 µM (inactive).

And the GI50 (HL-60)?
Its GI50 is 21.1 µM (inactive).

And the GI50 (OVCAR-5)?
The GI50 was 21.5 µM (inactive).

What about the GI50 (CAKI-1) of the same compound?
Its GI50 is 19.4 µM (inactive).

What about the GI50 (CCRF-CEM) of the same compound?
Its GI50 is 21.5 µM (inactive).

What about the GI50 (HT-29) of the same compound?
The GI50 was 20.4 µM (inactive).

And the GI50 (A498)?
The GI50 was 18.7 µM (inactive).

And the GI50 (SR)?
Its GI50 is 16.3 µM (inactive).

What about the GI50 (SNB-19) of the same compound?
The GI50 was 61.8 µM (inactive).

What about the GI50 (MDA-MB-435) of the same compound?
The GI50 was 21.7 µM (inactive).

And the GI50 (HOP-92)?
The GI50 was 27.1 µM (inactive).

What about the GI50 (Hs-578T) of the same compound?
The GI50 was 26.5 µM (inactive).

And the GI50 (786-0)?
The GI50 was 19.4 µM (inactive).

And the GI50 (UO-31)?
The GI50 was 27.6 µM (inactive).

And the GI50 (MDA-N)?
Its GI50 is 17.4 µM (inactive).

What about the GI50 (U-251) of the same compound?
Its GI50 is 17.2 µM (inactive).

And the GI50 (SK-MEL-28)?
The GI50 was 20.1 µM (inactive).

What about the GI50 (COLO 205) of the same compound?
The GI50 was 16.4 µM (inactive).

And the GI50 (M14)?
The GI50 was 23.1 µM (inactive).

And the GI50 (BT-549)?
The GI50 was 15.1 µM (inactive).

What about the GI50 (NCI-H23) of the same compound?
Its GI50 is 19.5 µM (inactive).

What about the GI50 (KM12) of the same compound?
Its GI50 is 26.4 µM (inactive).

What about the GI50 (ACHN) of the same compound?
The GI50 was 29.2 µM (inactive).

What about the GI50 (SK-MEL-2) of the same compound?
The GI50 was 19.5 µM (inactive).

And the GI50 (SW-620)?
The GI50 was 22 µM (inactive).

And the GI50 (HCT-116)?
The GI50 was 17.5 µM (inactive).

And the GI50 (SF-539)?
Its GI50 is 20.6 µM (inactive).

What about the GI50 (K562) of the same compound?
The GI50 was 21.2 µM (inactive).

And the GI50 (MDA-MB-231)?
Its GI50 is 19.8 µM (inactive).

And the GI50 (TK-10)?
The GI50 was 36.8 µM (inactive).

And the GI50 (HCT-15)?
Its GI50 is 17.8 µM.

What about the GI50 (OVCAR-3) of the same compound?
Its GI50 is 16.3 µM (inactive).

What about the GI50 (MOLT-4) of the same compound?
Its GI50 is 20.7 µM (inactive).

What about the GI50 (HOP-62) of the same compound?
The GI50 was 17.2 µM (inactive).

What about the GI50 (SN12C) of the same compound?
Its GI50 is 18.3 µM (inactive).

What about the GI50 (NCI-H226) of the same compound?
The GI50 was 27.2 µM (inactive).

What about the GI50 (MCF7) of the same compound?
Its GI50 is 30 µM (inactive).

And the GI50 (NCI-H460)?
The GI50 was 14.7 µM (inactive).

What about the GI50 (Malme-3M) of the same compound?
Its GI50 is 27.9 µM (inactive).

Which GI50 (SF-295) does the source give for `C[C@]12CC[C@H]3[C@@H](CC=C4C[C@@H](O)CC[C@@]43C)[C@@H]1C/C(=C\c1cccnc1)[C@@H]2O` here?
The GI50 was 2.55 µM (inactive).

And the GI50 (LOX IMVI)?
Its GI50 is 1.28 µM (inactive).

What about the GI50 (DU-145) of the same compound?
Its GI50 is 13.5 µM (inactive).

What about the GI50 (PC-3) of the same compound?
Its GI50 is 30.7 µM (inactive).

What about the GI50 (IGROV-1) of the same compound?
The GI50 was 24.7 µM (inactive).

And the GI50 (EKVX)?
Its GI50 is 3.97 µM (inactive).

What about the GI50 (UACC-62) of the same compound?
Its GI50 is 7.96 µM (inactive).

And the GI50 (UACC-257)?
The GI50 was 39.2 µM (inactive).

And the GI50 (NCI/ADR-RES)?
Its GI50 is 11.8 µM (inactive).

What about the GI50 (RXF 393) of the same compound?
The GI50 was 15 µM (inactive).

What about the GI50 (OVCAR-8) of the same compound?
The GI50 was 6.89 µM (inactive).

What about the GI50 (SK-OV-3) of the same compound?
The GI50 was 10.8 µM (inactive).

What about the GI50 (OVCAR-4) of the same compound?
The GI50 was 4.68 µM (inactive).

What about the GI50 (A549) of the same compound?
The GI50 was 7.83 µM (inactive).

What about the GI50 (OVCAR-5) of the same compound?
The GI50 was 41.4 µM (inactive).

What about the GI50 (NCI-H522) of the same compound?
Its GI50 is 12.6 µM (inactive).

What about the GI50 (CCRF-CEM) of the same compound?
Its GI50 is 23.6 µM (inactive).

What about the GI50 (HT-29) of the same compound?
The GI50 was 43.8 µM (inactive).

What about the GI50 (A498) of the same compound?
Its GI50 is 7.14 µM (inactive).

And the GI50 (RPMI-8226)?
Its GI50 is > 100 µM (inactive).

And the GI50 (SR)?
The GI50 was 1.57 µM (inactive).

And the GI50 (SNB-19)?
Its GI50 is 16 µM (inactive).

And the GI50 (MDA-MB-435)?
Its GI50 is > 100 µM (inactive).

What about the GI50 (HOP-92) of the same compound?
Its GI50 is 11.9 µM (inactive).

What about the GI50 (Hs-578T) of the same compound?
The GI50 was 6.21 µM (inactive).

And the GI50 (786-0)?
Its GI50 is 19 µM (inactive).

What about the GI50 (UO-31) of the same compound?
The GI50 was 55.5 µM (inactive).

And the GI50 (MDA-N)?
Its GI50 is > 100 µM (inactive).

What about the GI50 (U-251) of the same compound?
Its GI50 is 6.27 µM (inactive).

And the GI50 (SK-MEL-28)?
The GI50 was 32.1 µM (inactive).

And the GI50 (COLO 205)?
Its GI50 is > 100 µM (inactive).

And the GI50 (M14)?
Its GI50 is > 100 µM (inactive).

What about the GI50 (BT-549) of the same compound?
The GI50 was 13.5 µM (inactive).

And the GI50 (NCI-H23)?
Its GI50 is 13.1 µM (inactive).

What about the GI50 (KM12) of the same compound?
The GI50 was > 100 µM (inactive).

What about the GI50 (ACHN) of the same compound?
The GI50 was 5.82 µM (inactive).

And the GI50 (SK-MEL-2)?
Its GI50 is 30.8 µM (inactive).

And the GI50 (SW-620)?
Its GI50 is 89.9 µM (inactive).

And the GI50 (HCT-116)?
The GI50 was 25 µM (inactive).

And the GI50 (SF-539)?
The GI50 was 14 µM (inactive).

And the GI50 (MDA-MB-231)?
Its GI50 is 13.2 µM (inactive).

And the GI50 (TK-10)?
Its GI50 is 19.6 µM (inactive).

And the GI50 (HCT-15)?
The GI50 was 38.1 µM.

What about the GI50 (HOP-62) of the same compound?
The GI50 was 4.67 µM (inactive).

And the GI50 (SN12C)?
The GI50 was 9.44 µM (inactive).

What about the GI50 (NCI-H226) of the same compound?
The GI50 was 5.25 µM (inactive).

And the GI50 (MCF7)?
Its GI50 is 6.75 µM (inactive).

And the GI50 (NCI-H460)?
The GI50 was 31.6 µM (inactive).

What about the GI50 (Malme-3M) of the same compound?
Its GI50 is > 100 µM (inactive).

— ChEMBL document CHEMBL1201862, “PubChem BioAssay data set” (2004)
